Test results from the supplement of paper PMC10307832.

Assays:
Experiment in all cases: relative viability (nuclei count vs DMSO), 5 days (fraction); higher = more cells survive
Vorinostat + Lapatinib = compound: O=C(CCCCCCC(=O)Nc1ccccc1)NO [Vorinostat] + CS(=O)(=O)CCNCc1ccc(-c2ccc3ncnc(Nc4ccc(OCc5cccc(F)c5)c(Cl)c4)c3c2)o1 [Lapatinib] (partner 2 µM)
Summary of the method: (§1)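 Relative viability divides the nuclei count in treated wells by that in vehicle wells. Lung cancer cell lines were seeded in 1536-well plates, dosed by pin tool the next day, and fixed and stained after 5 days in one step with final 0.05% Triton X-100, 1% formaldehyde and 1 ug/ml Hoechst. Dosing was a single drug or a fixed anchor-drug dose plus five library-drug doses (not always all listed) in √10 steps, and values are medians of duplicate plates imaged at 4×.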

Vorinostat + Crizotinib = compound: O=C(CCCCCCC(=O)Nc1ccccc1)NO [Vorinostat] + C[C@@H](Oc1cc(-c2cnn(C3CCNCC3)c2)cnc1N)c1c(Cl)ccc(F)c1Cl [Crizotinib] (partner 1 µM)
Summary of the method: as §1

Vorinostat + Luminespib = compound: O=C(CCCCCCC(=O)Nc1ccccc1)NO [Vorinostat] + CCNC(=O)c1noc(-c2cc(C(C)C)c(O)cc2O)c1-c1ccc(CN2CCOCC2)cc1 [Luminespib] (partner 0.01 µM)
Summary of the method: as §1

Vorinostat = compound: O=C(CCCCCCC(=O)Nc1ccccc1)NO [Vorinostat]
Summary of the method: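 Lung cancer cell lines received five library-drug doses (not always all listed) spaced by √10, pinned on vehicle-anchored 1536-well plates after an overnight stay at 37 °C. Five days later, with no medium change, nuclei were Hoechst-stained, imaged at 4× and counted with MetaXpress. Viability is treated-well nuclei relative to vehicle-well nuclei, as a median across plates. Passing plates had control CV below 25% and at least one doubling.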

Cell Line | relative viability (Vorinostat + Lapatinib; first compound 0.253 µM) | relative viability (Vorinostat + Lapatinib; first compound 0.8 µM) | relative viability (Vorinostat + Lapatinib; first compound 2.53 µM) | relative viability (Vorinostat + Lapatinib; first compound 8 µM) | relative viability (Vorinostat + Crizotinib; first compound 0.253 µM) | relative viability (Vorinostat + Crizotinib; first compound 0.8 µM) | relative viability (Vorinostat + Crizotinib; first compound 2.53 µM) | relative viability (Vorinostat + Crizotinib; first compound 8 µM) | relative viability (Vorinostat + Luminespib; first compound 0.253 µM) | relative viability (Vorinostat + Luminespib; first compound 0.8 µM) | relative viability (Vorinostat + Luminespib; first compound 2.53 µM) | relative viability (Vorinostat + Luminespib; first compound 8 µM) | relative viability (Vorinostat; 0.253 µM) | relative viability (Vorinostat; 0.8 µM) | relative viability (Vorinostat; 1 µM, anchor plate) | relative viability (Vorinostat; 2.53 µM) | relative viability (Vorinostat; 8 µM)
NCI-H2023 | 1.01 | 0.597 | 0.186 | 0.0723 | 0.716 | 0.525 | 0.188 | 0.0669 | 1.04 | 0.534 | 0.188 | 0.0701 | 1.22 | 0.771 | 0.709 | 0.209 | 0.0744
PC-3 [JPC-3] | 0.456 | 0.441 | 0.326 | 0.252 | 0.955 | 0.97 | 0.41 | 0.228 | 0.746 | 0.801 | 0.282 | 0.261 | 1.12 | 0.988 | 0.921 | 0.608 | 0.312
LOU-NH91 | 0.843 | 0.799 | 0.688 | 0.346 | 0.755 | 0.746 | 0.599 | 0.362 | 0.376 | 0.417 | 0.329 | 0.283 | 1.09 | 0.918 | 0.94 | 0.829 | 0.423
LCLC-97TM1 | – | 0.784 | 1.49 | 0.115 | – | 0.328 | 0.157 | 0.11 | 0.819 | 0.704 | 0.299 | 0.122 | 0.979 | 1.07 | 0.711 | 0.715 | 0.1
NCI-H2405 | 1.36 | 1.18 | 0.306 | 0.0576 | 0.917 | 0.88 | 0.415 | 0.0921 | 0.995 | 1.03 | 0.596 | 0.164 | 1.05 | 1.17 | 1.01 | 0.57 | 0.144
HCC-827 | 0.219 | 0.204 | 0.155 | 0.161 | 0.97 | 0.964 | 0.581 | 0.174 | 0.655 | 0.641 | 0.257 | 0.168 | 1.15 | 1.12 | 0.882 | 0.934 | 0.416
NCI-H2009 | 1.06 | 0.503 | 0.329 | 0.133 | 0.992 | 0.983 | 0.457 | 0.0597 | 1.04 | 0.935 | 0.752 | 0.144 | 1.14 | 0.878 | 0.711 | 0.482 | 0.153
COR-L 105 | 0.425 | 0.287 | 0.252 | 0.249 | 0.65 | 0.383 | 0.221 | 0.199 | 0.968 | 0.892 | 0.646 | 0.219 | 1.42 | 0.858 | 0.868 | 0.501 | 0.237
EPLC-272H | 0.788 | 0.761 | 0.278 | 0.14 | 0.875 | 0.774 | 0.346 | 0.178 | 0.497 | 0.195 | 0.273 | 0.158 | 0.976 | 0.767 | 0.533 | 0.373 | 0.157
SK-LU-1 | 1.05 | 0.738 | 0.449 | 0.16 | 0.921 | 0.672 | 0.43 | 0.164 | 0.21 | 0.234 | 0.176 | 0.196 | 1.19 | 0.924 | 0.781 | 0.668 | 0.19
NCI-H2228 | 1.34 | 0.519 | 0.261 | 0.122 | 0.593 | 0.502 | 0.246 | 0.168 | 0.138 | 0.172 | 0.168 | 0.113 | 0.93 | 0.802 | 0.654 | 0.476 | 0.146
NCI-H1734 | 1.33 | 0.993 | 0.678 | 0.162 | 0.779 | 0.683 | 0.214 | 0.127 | 0.24 | 0.185 | 0.165 | 0.0945 | 1.28 | 0.982 | 0.832 | 0.688 | 0.15
NCI-H2170 | 0.283 | 0.273 | 0.238 | 0.198 | 1.29 | 0.967 | 0.229 | 0.149 | 0.894 | 0.692 | 0.577 | 0.171 | 1.08 | 0.969 | 0.847 | 0.539 | 0.158
COR-L23 | 1.07 | 0.818 | 0.139 | 0.0646 | 0.542 | 0.25 | 0.0669 | 0.0606 | 0.64 | 0.305 | 0.107 | 0.0643 | 1.09 | 0.763 | 0.426 | 0.18 | 0.0822
HARA | 0.849 | 0.682 | 0.237 | 0.112 | 1.15 | 0.932 | 0.136 | 0.0954 | 0.693 | 0.689 | 0.118 | 0.053 | 1.03 | 0.593 | 0.561 | 0.434 | 0.121
NCI-H1792 | 0.964 | 0.904 | 0.907 | 0.0753 | 0.966 | 0.983 | 0.826 | 0.0888 | 0.533 | 0.388 | 0.295 | 0.144 | 0.965 | 0.762 | – | 0.371 | 0.108
NCI-H1563 | 1.01 | 0.796 | 0.403 | 0.564 | 0.796 | 0.824 | 0.469 | 0.492 | 0.587 | 0.496 | 0.433 | 0.416 | 1.07 | 0.856 | – | 0.629 | 0.513
LU99A | 1.01 | 0.871 | 0.315 | 0.169 | 0.523 | 0.44 | 0.236 | 0.146 | 0.291 | 0.26 | 0.141 | 0.121 | 1.1 | 0.809 | 0.537 | 0.513 | 0.209
LXF-289 | 0.985 | 0.859 | 0.468 | 0.116 | 0.904 | 0.76 | 0.273 | 0.0737 | 0.763 | 0.596 | 0.299 | 0.0958 | 1.1 | 1.01 | 0.791 | 0.624 | 0.195
